Assay results from patent US20230210877A1, “A Composition for Management of COVID-19 and Associated Disorders” (priority 2020, published 2023).

Tested on: isoproterenol induced myocardial infarction
Assay: isoproterenol induced myocardial infarction rat model
Type: in vivo
Design: TNF-A: unit not given here
Conditions: rats, isoproterenol 90 mg/kg bwt. + treatment 138 mg/kg bwt. (total)

Row | Structure (SMILES) | GOT | GPT | TNF-A | LDH
1 | O=C(O[C@@H]1Cc2c(O)cc(O)cc2O[C@@H]1c1cc(O)c(O)c(O)c1)c1cc(O)c(O)c(O)c1 [EGCG, Epigallocatechin gallate] | 139.15 | 75.30 | 408.29 | –
2 | O=C(O)[C@H]1O[C@@H](Oc2cc3oc(-c4ccccc4)cc(=O)c3c(O)c2O)[C@H](O)[C@@H](O)[C@@H]1O [Biacalin, Baicalin] | 110.37 | 79.57 | 438.58 | 138.67
3 | O=c1c(O)c(-c2ccc(O)c(O)c2)oc2cc(O)cc(O)c12 [Quercetin] | 103.33 | 90.47 | 411.70 | 121.00
